Experimental data: ChEMBL document CHEMBL1201862, “PubChem BioAssay data set” (2004)
Values joined by “and” are separate entries in the source; they are usually repeats but may differ in a detail not shown here. Equal entries are not always repeated. Active and inactive are the calls of the source.

Experiments:
[1] = biological target: Lysosomal acid glucosylceramidase (Homo sapiens, UniProt P04062); assay: Dose response cell-based high throughput screening assay to identify enhancers of beta-glucosidase activity. [Related pubchem assays: 784 ]; type: functional
[2] = biological target: RNA-editing ligase 1, mitochondrial (Trypanosoma brucei brucei, UniProt P86926); assay: TbREL1 ligase inhibitors, dose response, biochemical, fluorescence, Trypanosoma brucei (AID 1117295); type: functional
[3] = biological target: DNA damage-inducible transcript 3 protein (Mus musculus, UniProt P35639); type: functional, Cricetulus griseus
[4] = biological target: T1, Apoptotic protease-activating factor 1 (Homo sapiens, UniProt O14727); type: functional
T1 sequence (O14727 whole entry): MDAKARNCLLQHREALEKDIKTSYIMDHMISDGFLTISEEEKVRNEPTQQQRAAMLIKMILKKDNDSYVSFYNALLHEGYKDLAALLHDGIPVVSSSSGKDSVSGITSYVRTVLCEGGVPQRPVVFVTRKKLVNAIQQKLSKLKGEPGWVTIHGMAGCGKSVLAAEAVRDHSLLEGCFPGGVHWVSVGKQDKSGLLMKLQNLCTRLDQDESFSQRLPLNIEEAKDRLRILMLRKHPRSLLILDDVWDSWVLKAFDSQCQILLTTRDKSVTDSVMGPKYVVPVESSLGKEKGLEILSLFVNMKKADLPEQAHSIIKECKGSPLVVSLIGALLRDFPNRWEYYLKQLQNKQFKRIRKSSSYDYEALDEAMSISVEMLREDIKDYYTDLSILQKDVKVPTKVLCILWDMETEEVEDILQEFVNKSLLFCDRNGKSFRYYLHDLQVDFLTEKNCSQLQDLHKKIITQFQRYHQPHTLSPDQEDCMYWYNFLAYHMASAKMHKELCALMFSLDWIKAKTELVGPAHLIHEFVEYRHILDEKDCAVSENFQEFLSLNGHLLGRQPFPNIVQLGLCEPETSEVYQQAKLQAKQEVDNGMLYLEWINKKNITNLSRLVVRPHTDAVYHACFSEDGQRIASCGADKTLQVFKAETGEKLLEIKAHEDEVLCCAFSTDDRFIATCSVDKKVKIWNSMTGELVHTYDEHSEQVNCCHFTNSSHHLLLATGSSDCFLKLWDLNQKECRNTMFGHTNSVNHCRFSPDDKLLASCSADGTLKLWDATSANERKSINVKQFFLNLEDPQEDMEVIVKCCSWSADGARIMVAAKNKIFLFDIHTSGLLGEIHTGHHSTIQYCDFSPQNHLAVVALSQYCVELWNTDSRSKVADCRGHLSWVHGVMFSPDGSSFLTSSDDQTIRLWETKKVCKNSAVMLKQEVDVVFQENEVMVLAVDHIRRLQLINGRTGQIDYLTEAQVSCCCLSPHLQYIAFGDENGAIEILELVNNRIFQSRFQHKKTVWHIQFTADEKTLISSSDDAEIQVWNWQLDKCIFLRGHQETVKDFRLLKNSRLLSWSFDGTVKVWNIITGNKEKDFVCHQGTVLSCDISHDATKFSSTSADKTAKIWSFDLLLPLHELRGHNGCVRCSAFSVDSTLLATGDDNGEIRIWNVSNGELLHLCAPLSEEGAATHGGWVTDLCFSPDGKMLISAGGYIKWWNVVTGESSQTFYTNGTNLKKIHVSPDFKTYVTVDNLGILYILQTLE

[5] = HEp-2 cell cytotoxicity, dose response, cytotoxicity control for RSV inhibitor project, HTS (AID 2410); type: functional; settings: human respiratory syncytial virus
[6] = biological target: T2, Runt-related transcription factor 1/Core-binding factor subunit beta (Homo sapiens, UniProt Q01196+Q13951); assay: inhibitors of RUNX1 Runt–CBFb-SMMHC binding, primary screen, biochemical, FRET, Cerulean-Runt, Venus-CBFb-SMMHC, uHTS (AID 1434); type: protein assay;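 further: partner is the CBFb-SMMHC leukemia fusion protein rather than wild-type CBFb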
[7] = biological target: T2, Runt-related transcription factor 1/Core-binding factor subunit beta; assay: inhibitors of RUNX1 Runt–CBFb-SMMHC binding, biochemical, TR-FRET (AID 1438); type: protein assay
[8] = biological target: FAD-linked sulfhydryl oxidase ALR (Homo sapiens, UniProt P55789); assay: inhibitors of human ALR sulfhydryl oxidase, dose response, biochemical, H2O2 detection, luminescence, cherry-pick (AID 493248)
[9] = biological target: T3, Zinc finger protein mex-5 (Caenorhabditis elegans, UniProt Q9XUB2); assay: MEX-5/TCR-2 RNA interaction inhibitors, dose response, biochemical, C. elegans, fluorescence polarization (AID 1960)
T3 sequence (Q9XUB2 whole entry): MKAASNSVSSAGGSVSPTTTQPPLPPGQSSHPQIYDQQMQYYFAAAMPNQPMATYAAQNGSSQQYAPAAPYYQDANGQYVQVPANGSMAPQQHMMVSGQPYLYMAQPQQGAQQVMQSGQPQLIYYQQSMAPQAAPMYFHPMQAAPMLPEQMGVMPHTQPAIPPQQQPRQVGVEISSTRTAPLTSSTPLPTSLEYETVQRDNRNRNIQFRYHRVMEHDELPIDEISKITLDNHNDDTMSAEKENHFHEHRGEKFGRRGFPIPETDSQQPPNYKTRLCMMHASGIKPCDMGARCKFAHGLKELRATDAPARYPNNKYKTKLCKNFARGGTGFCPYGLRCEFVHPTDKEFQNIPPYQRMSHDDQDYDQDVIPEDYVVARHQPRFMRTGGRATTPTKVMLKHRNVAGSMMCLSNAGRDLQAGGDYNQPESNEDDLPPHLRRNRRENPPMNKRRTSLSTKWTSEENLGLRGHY

[10] = biological target: T4, RNA-binding protein pos-1 (Caenorhabditis elegans, UniProt G5EF15); assay: inhibitors of POS-1/mex-3 RNA binding, dose response, biochemical, fluorescence polarization (AID 1964);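 further: purified POS-1 fused to maltose binding protein made in E. coli; potency of compounds blocking POS-1 binding to fluorescent RNA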
T4 sequence (G5EF15 whole entry): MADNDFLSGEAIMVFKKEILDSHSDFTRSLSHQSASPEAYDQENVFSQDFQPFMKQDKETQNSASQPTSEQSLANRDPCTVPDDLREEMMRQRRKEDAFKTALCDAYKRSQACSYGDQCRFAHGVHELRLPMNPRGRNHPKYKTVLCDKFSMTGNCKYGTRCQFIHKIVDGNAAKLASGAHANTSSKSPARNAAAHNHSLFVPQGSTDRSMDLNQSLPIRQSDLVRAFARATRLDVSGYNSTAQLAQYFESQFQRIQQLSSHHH

[11] = growth suppression of PTEN-null colon cells, dose response, cell-based, HCT116 PTEN knockout (AID 1047); type: functional;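 further: HCT116 colon tumor cells with PTEN knocked out; cells exposed to compound for 60 hours before readout; potency for loss of cell viability measured by luminescence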
Procathepsin L = Procathepsin L (Homo sapiens, UniProt P07711)
Large T antigen = Large T antigen (Simian virus 40, UniProt P03070); type: functional, Betapolyomavirus macacae;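 further: Confirmatory-stage PubChem screen for compounds that inhibit SV40 T antigen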
Aspartyl aminopeptidase = biological target: T5, Aspartyl aminopeptidase (Plasmodium falciparum 3D7, UniProt Q8I2J3)
T5 sequence (Q8I2J3 whole entry): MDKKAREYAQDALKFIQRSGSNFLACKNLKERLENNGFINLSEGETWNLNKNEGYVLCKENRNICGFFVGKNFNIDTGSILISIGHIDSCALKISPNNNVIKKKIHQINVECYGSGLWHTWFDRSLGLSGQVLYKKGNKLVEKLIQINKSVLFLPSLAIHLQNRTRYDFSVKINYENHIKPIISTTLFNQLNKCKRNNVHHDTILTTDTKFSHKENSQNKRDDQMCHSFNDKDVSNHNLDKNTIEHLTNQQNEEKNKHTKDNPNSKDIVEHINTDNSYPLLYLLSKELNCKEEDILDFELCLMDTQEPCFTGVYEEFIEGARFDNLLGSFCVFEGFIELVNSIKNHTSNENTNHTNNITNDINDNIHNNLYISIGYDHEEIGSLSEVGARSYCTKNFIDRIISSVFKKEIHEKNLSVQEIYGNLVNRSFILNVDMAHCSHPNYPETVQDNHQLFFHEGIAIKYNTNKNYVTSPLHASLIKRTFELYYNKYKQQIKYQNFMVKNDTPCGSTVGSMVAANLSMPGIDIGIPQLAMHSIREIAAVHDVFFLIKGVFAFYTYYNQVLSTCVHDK

[12] = growth suppression of beta-catenin-knockout colon cells, dose response, cell-based, HCT116, human colon tumor (AID 1045); type: functional;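 further: HCT116 colon tumor cells with beta catenin knocked out; cells exposed to compound for 60 hours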
Streptococcus = assay: Group A Streptococcus viability loss, dose response, counter-screen for streptokinase expression inhibitor project, luminescence, BacTiterGlo (AID 1915); type: functional, organism-based;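 further: potency for reduction of bacterial viability or growth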
Streptokinase A = biological target: T6, Streptokinase A (Streptococcus pyogenes serotype M1, UniProt P10520); assay: S. pyogenes streptokinase expression inhibitors, potency, dose response, plasminogen activation absorbance, OD405 (AID 1914); type: functional, Streptococcus pyogenes M1 GAS;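 further: secreted streptokinase activity via plasminogen activation per viability signal from cell pellet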
T6 sequence (P10520 whole entry): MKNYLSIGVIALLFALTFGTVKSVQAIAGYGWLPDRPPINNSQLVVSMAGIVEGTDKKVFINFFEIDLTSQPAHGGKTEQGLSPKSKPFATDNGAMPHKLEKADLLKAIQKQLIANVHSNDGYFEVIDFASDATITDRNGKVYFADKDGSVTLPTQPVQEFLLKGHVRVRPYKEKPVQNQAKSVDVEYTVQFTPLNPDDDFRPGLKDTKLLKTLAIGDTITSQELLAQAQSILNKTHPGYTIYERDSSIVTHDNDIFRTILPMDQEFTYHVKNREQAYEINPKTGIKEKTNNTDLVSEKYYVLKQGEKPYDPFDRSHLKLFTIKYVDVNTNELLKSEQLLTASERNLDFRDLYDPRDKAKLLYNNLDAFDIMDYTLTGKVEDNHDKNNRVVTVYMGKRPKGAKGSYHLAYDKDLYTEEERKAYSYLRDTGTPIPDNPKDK

[13] = test system: Streptococcus sp. 'group A'; assay: growth inhibition of control SK(-) GAS strain, dose response, counter-screen for streptokinase expression inhibitor project, luminescence, kanamycin, BacTiterGlo, confirmation (AID 1900); type: functional, organism-based
Vero = assay: cells; type: functional; settings: Chlorocebus sabaeus
Troponin, cardiac muscle = Troponin, cardiac muscle (Homo sapiens, UniProt P19429+P45379+P63316); assay: Fluorescence-based biochemical high throughput dose response assay for activators of the calcium sensitivity of cardiac Regulated Thin Filaments (RTF). [Related pubchem assays (depositor defined):AID493008, AID493018, AID504382, AID504383]; type: protein-complex assay
[14] = cytotoxicity in HEK-293T cells, dose response, cytotoxicity control for BCR NF-kB inhibitor project, luminescence, B-cell screen hits (AID 489021); type: functional, cell-based;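 further: HEK-293T cells carrying an NF-kB luciferase reporter; cells exposed to compound for about 14 hours before viability readout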
[15] = cytotoxicity in HPDE-C7 cells, cell-based, fluorescence, HTS (AID 430); type: functional; settings: Homo sapiens
Cytochrome P450 3A4 = Cytochrome P450 3A4 (Homo sapiens, UniProt P08684);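 further: CYP3A4 tested as one member of a cytochrome P450 panel screen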
Cytochrome P450 1A2 = biological target: T7, Cytochrome P450 1A2 (Homo sapiens, UniProt P05177);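 further: PubChem cytochrome P450 panel assay, CYP1A2 panel member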
T7 sequence (P05177 whole entry): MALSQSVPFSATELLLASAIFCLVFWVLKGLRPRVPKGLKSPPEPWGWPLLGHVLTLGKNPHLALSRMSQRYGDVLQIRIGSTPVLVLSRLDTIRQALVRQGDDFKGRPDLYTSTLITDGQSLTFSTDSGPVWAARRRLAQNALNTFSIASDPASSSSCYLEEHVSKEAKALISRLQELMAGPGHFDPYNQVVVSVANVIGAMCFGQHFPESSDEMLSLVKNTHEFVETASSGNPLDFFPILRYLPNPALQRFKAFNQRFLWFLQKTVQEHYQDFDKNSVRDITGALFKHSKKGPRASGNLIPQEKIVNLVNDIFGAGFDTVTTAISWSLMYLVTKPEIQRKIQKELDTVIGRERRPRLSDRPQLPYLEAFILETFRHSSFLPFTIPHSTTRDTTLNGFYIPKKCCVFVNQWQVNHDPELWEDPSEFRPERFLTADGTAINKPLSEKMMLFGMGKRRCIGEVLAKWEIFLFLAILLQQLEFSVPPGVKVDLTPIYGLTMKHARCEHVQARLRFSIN

[16] = cytotoxicity in KRAS-transformed pancreatic duct cells, primary screen, cell-based, fluorescence, HTS (AID 431); type: functional; settings: Homo sapiens;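 further: cell line used: HPDE-C7K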
[17] = Luminescence Cell-Based Dose Retest to Confirm Inhibitors of Cancer Stem Cells. [Related pubchem assays (depositor defined):AID2717, AID2721]; type: functional; settings: Homo sapiens
X-box-binding protein 1 = X-box-binding protein 1 (Homo sapiens, UniProt P17861); type: functional, Cricetulus griseus;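 further: confirmatory dose-response counter-screen serving a CHOP assay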

Compound: CCC(C)NC(=O)c1c(N)n(CC2CCCO2)c2nc3ccccc3nc12 (centres undefined)
- EC50 [1]: > 50 µM (not active)
- IC50 [2]: 27.7 µM (inactive)
- Absolute IC50 (CHOP) [3]: 10 µM
- IC50 [4]: 18.8 µM (active)
- CC50 [5]: 20.3 µM (active)

Compound: Oc1ccc(O)c(-c2cnns2)c1
- IC50 [6]: 33.8 µM (active)
- IC50 [7]: 20.5 µM (active)
- AC50 [8]: 4.57 µM (active)
- EC50 [9]: 6.91 µM (active)
- EC50 [10]: > 300 µM (not active)
- EC50 [11]: 47.1 µM (active)
- IC50 (Procathepsin L): > 59.6 µM (not active)
- IC50 (Large T antigen): 10 µM (active)
- IC50 (Aspartyl aminopeptidase): 1.89 µM (active)
- EC50 [12]: 365 µM (active)

Compound: Cc1cc(=O)oc2c3c4c(cc12)OCCN4CCC3
- IC50 [6]: < 0.195 µM (inactive)
- IC50 [7]: > 100 µM (inactive)

Compound: O=C(CN1c2ccccc2Sc2ccccc21)NNC(=O)Nc1cccc(Cl)c1
- EC50 (Streptococcus): 18.5 µM (active)
- EC50 (Streptokinase A): > 150 µM (not active)
- EC50 [13]: 4.41 µM (active)
- CC50 (Vero): 19 µM (active)
- Absolute IC50 (CHOP) [3]: 10 µM

Compound: O=C(Nc1ccc(Cl)cn1)C1COc2ccccc2O1 (centres undefined)
- EC50 (Troponin, cardiac muscle): > 71.5 µM (inactive)

Compound: CCOc1ccc(-c2nnc(SCC(=O)NC3CC3)o2)cc1
- IC50 [14]: > 80 µM (inactive)

Compound: Fc1ccc(-c2n[nH]cc2CN(CC2CCC2)CC2CCCO2)c(F)c1 (centres undefined)
- EC50 (Troponin, cardiac muscle): > 71.5 µM (inactive)

Compound: C(=N\Nc1nc(Nc2ccccc2)nc(Nc2ccccc2)n1)/c1cccnc1
- IC50 [14]: 41.3 µM (inactive)

Compound: O=c1[nH]c2ccccc2n1C1CCN(CCCC(c2ccc(F)cc2)c2ccc(F)cc2)CC1 [PIMOZIDE]
- EC50 [15]: 13.6 µM (active)
- AC50 (Cytochrome P450 3A4): inconclusive
- AC50 (Cytochrome P450 1A2): 31.6 µM (inconclusive) and 15.8 µM (inconclusive)
- EC50 [11]: 6.38 µM (active)
- EC50 [16]: 18.9 µM (active)
- AC50 [17]: 3.79 µM (active)
- Absolute IC50 (XBP1) (X-box-binding protein 1): < 10 µM
- EC50 [12]: 7.54 µM (active)
